Laboratory results: US5602161A, “Tetrazolylphenyl pivalate derivatives and medicinal composition containing the same as effective component” (Wakamoto Pharmaceutical Co., Ltd., priority 1994, dated 1997)
pIC50: −log10 of the molar value. Where a name gives a salt, the structure may show the parent alone.

The molecules below were run against T1, human sputum elastase (Homo sapiens, UniProt P08246) (assay: Inhibitory effect on elastase (human sputum), spectrophotometric assay with MeOSuc-Ala-Ala-Pro-Val-pNA). Conditions: S: human sputum elastase; pH 8.0, 37° C.; read-out: IC50.
T1 sequence (P08246 30-247 limits assumed): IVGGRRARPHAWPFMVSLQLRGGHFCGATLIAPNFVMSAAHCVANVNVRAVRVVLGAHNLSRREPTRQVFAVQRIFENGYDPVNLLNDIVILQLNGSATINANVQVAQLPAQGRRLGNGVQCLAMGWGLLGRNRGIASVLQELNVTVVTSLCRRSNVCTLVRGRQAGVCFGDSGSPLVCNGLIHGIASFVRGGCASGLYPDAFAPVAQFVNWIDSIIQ
Format: biochemical
Experimental: Namely, it is a spectrophotometric assay using the synthesized substrate, methoxysuccinyl-alanyl-alanyl- prolyl-valyl-p-nitroanilide(MeOSuc-Ala-Ala-Pro-Val-pNA, Cambridge research biochemical Co.) which has high specificity on neutrophil elastase.
20 μl of a test compound of various concentrations and 20 μl of enzyme solution (13 unit/ml) were added to 400 μl of 0.1M sodium phosphate buffer (pH 8.0). The mixture was incubated at 37° C. for 5 min, and then 20 μl of the substrate was added to the mixture in a final volume of 460 μl. The reaction was conducted by incubating thus obtained mixture at 37° C. for 20 min. The reaction was stopped by the addition of 300 μl of 20% acetic acid into the reaction mixture, and then p-nitroanilide released was measured by the spectrophotometrically at 405 nm.
Inhibition percents of the test compounds were calculated by the following equation:
Inhibition %=[1-(OD 405 nm value of the testing sample-background)/(OD 405 nm value of the control-background)]×100

Structure (SMILES)	pIC50
CC(C)(C)C(=O)Oc1ccc(-c2nnn(CCN)n2)cc1 [Example 92, 4-[2-(2-Aminoethyl)tetrazol-5-yl]phenyl pivalate Hydrochloride]	5.80
CC(C)(C)C(=O)Oc1ccc(-c2nnn(Cc3cccc(CCCN)c3)n2)cc1 [Example 89, 4-[2-[3-(3-Aminopropyl)benzyl]tetrazol-5-yl]phenyl pivalate Hydrochloride]	6.77
CN(C)c1ccccc1Cn1nnc(-c2ccc(OC(=O)C(C)(C)C)cc2)n1 [Example 101, 4-[2-[2-(Dimethylamino)benzyl]tetrazol-5-yl]phenyl pivalate]	6.42
CC(C)(C)C(=O)Oc1ccc(-c2nnn(Cc3ccc(N4CCCC4)cc3)n2)cc1 [Example 50, 4-[2-(4-Pyrrolidinobenzyl)tetrazol-5-yl]phenyl pivalate]	5.77
CC(C)(C)C(=O)Oc1ccc(-c2nnn(Cc3cccc([N+](=O)[O-])c3)n2)cc1 [Example 26, 4-[2-(3-Nitrobenzyl)tetrazol-5-yl]phenyl pivalate]	6.57
CC(C)(C)OC(=O)COc1ccc(Cn2nnc(-c3ccc(OC(=O)C(C)(C)C)cc3)n2)cc1 [Example 32, t-Butyl 4-[5-(4-pivaloyloxyphenyl)tetrazol-2-ylmethyl]phenoxyacetate]	6.42
CN(C)c1cc(-c2nnn(Cc3ccc(C(=O)O)cc3)n2)ccc1OC(=O)C(C)(C)C [Example 8, 4-[5-(3-Dimethylamino-4-pivaloyloxyphenyl)tetrazol-2-ylmethyl]benzoic acid]	6.64
CC(C)(C)OC(=O)COc1ccccc1Cn1nnc(-c2ccc(OC(=O)C(C)(C)C)cc2)n1 [Example 30, t-Butyl 2-[5-(4-pivaloyloxyphenyl)tetrazol-2-ylmethyl]phenoxyacetate]	6.42
CC(C)(C)C(=O)Oc1ccc(-c2nnn(Cc3ccc(C(=O)NCCCCCC(=O)O)cc3)n2)cc1 [Example 68, 6-[N-[4-[5-(4-Pivaloyloxyphenyl)tetrazol-2-ylmethyl]benzoyl]amino]caproic acid]	6.70
CC(C)(C)C(=O)Oc1ccc(-c2nnn(C(c3ccccc3)c3ccccc3)n2)cc1 [Example 28, 4-[2-(Diphenylmethyl)tetrazol-5-yl]phenyl pivalate]	6.66
CC(C)(C)C(=O)Oc1ccc(-c2nnn(Cc3ccc(C(=O)NCCN)cc3)n2)cc1 [Example 71, N-(2-Aminoethyl)-4-[5-(4-pivaloyloxyphenyl)tetrazol-2-ylmethyl]benzamide Hydrochloride]	6.59
COc1cc(-c2nnn(Cc3cccc(OCCN)c3)n2)ccc1OC(=O)C(C)(C)C [Example 88, 4-[2-[3-(2-Aminoethoxy)benzyl]tetrazol-5-yl]-2-methoxyphenyl pivalate Hydrochloride]	6.19
CN(C)c1cccc(Cn2nnc(-c3ccc(OC(=O)C(C)(C)C)cc3)n2)c1 [Example 100, 4-[2-[3-(Dimethylamino)benzyl]tetrazol-5-yl]phenyl pivalate]	6.60
CNc1ccc(Cn2nnnc2-c2ccc(OC(=O)C(C)(C)C)cc2)cc1 [Example 91, 4-[1-(4-Methylaminobenzyl)tetrazol-5-yl]phenyl pivalate]	6.24
CC(C)(C)C(=O)Oc1ccc(-c2nnn(CCO)n2)cc1 [Example 72, 4-[2-(2-Hydroxyethyl)tetrazol-5-yl]phenyl pivalate]	6.30
CC(C)(C)C(=O)Oc1ccc(-c2nnn(C(C)(C)C)n2)cc1 [Example 36, 4-[2-(1,1-Dimethylethyl)tetrazol-5-yl]phenyl pivalate]	6.10
CC(C)(C)C(=O)Oc1ccc(-c2nnn(Cc3ccc(N)cc3)n2)cc1 [Example 76, 4-[2-(4-Aminobenzyl)tetrazol-5-yl]phenyl pivalate]	6.74
COc1cc(-c2nnn(Cc3ccc(C(=O)O)cc3)n2)ccc1OC(=O)C(C)(C)C [Example 56, 4-[5-(3-Methoxy-4-pivaloyloxyphenyl)tetrazol-2-ylmethyl]benzoic acid]	6.38
CN(C(=O)OC(C)(C)C)c1ccc(Cn2nnnc2-c2ccc(OC(=O)C(C)(C)C)cc2)cc1 [Example 40, 4-[1-[4-(N-t-Butoxycarbonyl-N-methylamino)benzyl]tetrazol-5-yl]phenyl pivalate]	6.60
CN(C)CCn1nnc(-c2ccc(OC(=O)C(C)(C)C)cc2)n1 [Example 38, 4-[2-(2-Dimethylaminoethyl)tetrazol-5-yl]phenyl pivalate Hydrochloride]	6.10
Cc1cc(-c2nnn(Cc3ccc(C(=O)O)cc3)n2)ccc1OC(=O)C(C)(C)C [Example 55, 4-[5-(3-Methyl-4-pivaloyloxyphenyl)tetrazol-2-ylmethyl]benzoic acid]	6.00
CC(C)(C)OC(=O)Cn1nnc(-c2ccc(OC(=O)C(C)(C)C)cc2)n1 [Example 10, 4-[2-(t-Butoxycarbonylmethyl)tetrazol-5-yl]phenyl pivalate]	6.10
CCN(C)c1ccc(Cn2nnc(-c3ccc(OC(=O)C(C)(C)C)cc3)n2)cc1 [Example 97, 4-[2-[4-(Ethylmethylamino)benzyl]tetrazol-5-yl]phenyl pivalate]	6.82
CC(C)(C)C(=O)Oc1ccc(-c2nnn[nH]2)cc1 [Example 3, 4-(1H-Tetrazol-5-yl)phenyl pivalate]	5.70
C[C@H](NC(=O)c1ccc(Cn2nnc(-c3ccc(OC(=O)C(C)(C)C)cc3)n2)cc1)C(=O)O [Example 57, N-[4-[5-(4-Pivaloyloxyphenyl)tetrazol-2-ylmethyl]benzoyl]-L-alanine]	6.38
CC(C)(C)C(=O)Oc1ccc(-c2nnn(Cc3ccccc3C(=O)O)n2)cc1 [Example 52, 2-[5-(4-Pivaloyloxyphenyl)tetrazol-2-ylmethyl]benzoic acid]	6.46

More lines, in order of rising pIC50, values ahead:

pIC50	Structure (SMILES)
6.82	CC(C)(C)C(=O)Oc1ccc(-c2nnn(Cc3cccc(N)c3)n2)cc1 [Example 77, 4-[2-(3-Aminobenzyl)tetrazol-5-yl]phenyl pivalate]
6.82	CCCN(C)c1ccc(Cn2nnc(-c3ccc(OC(=O)C(C)(C)C)cc3)n2)cc1 [Example 98, 4-[2-[4-(Methylpropylamino)benzyl]tetrazol-5-yl]phenyl pivalate]
6.85	CC(C)(C)C(=O)Oc1ccc(-c2nnn(Cc3ccccc3NS(C)(=O)=O)n2)cc1 [Example 79, 4-[2-[2-(Methylsulfonylamino)benzyl]tetrazol-5-yl]phenyl pivalate]
6.85	CC(C)c1ccc(Cn2nnnc2-c2ccc(OC(=O)C(C)(C)C)cc2)cc1 [Example 96, 4-[1-(4-Isopropylbenzyl)tetrazol-5-yl]phenyl pivalate]
6.89	COc1ccc(COCCCCCn2nnc(-c3ccc(OC(=O)C(C)(C)C)cc3)n2)cc1 [Example 43, 4-[2-[5-(4-Methoxybenzyloxy)pentyl]tetrazol-5-yl]phenyl pivalate]
6.96	CC(C)(C)C(=O)Oc1ccc(-c2nnn(Cc3ccc(CC(=O)O)cc3)n2)cc1 [Example 53, 4-[5-(4-Pivaloyloxyphenyl)tetrazol-2-ylmethyl]phenylacetic acid]
7.00	CC(=O)c1ccc(Cn2nnc(-c3ccc(OC(=O)C(C)(C)C)cc3)n2)cc1 [Example 29, 4-[2-(4-Acetylbenzyl)tetrazol-5-yl]phenyl pivalate]
7.00	CC(C)(C)OC(=O)COc1cccc(Cn2nnc(-c3ccc(OC(=O)C(C)(C)C)cc3)n2)c1 [Example 31, t-Butyl 3-[5-(4-pivaloyloxyphenyl)tetrazol-2-ylmethyl]phenoxyacetate]
7.04	CC(C)(C)C(=O)Oc1ccc(-c2nnn(Cc3cccc(OCC(=O)O)c3)n2)cc1 [Example 82, 3-[5-(4-Pivaloyloxyphenyl)tetrazol-2-ylmethyl]phenoxyacetic acid]
7.05	CC(C)(C)C(=O)Oc1ccc(-c2nnn(Cc3ccccc3[N+](=O)[O-])n2)cc1 [Example 27, 4-[2-(2-Nitrobenzyl)tetrazol-5-yl]phenyl pivalate]
7.08	CC(C)(C)C(=O)Oc1ccc(-c2nnn(Cc3ccc(OCC(=O)O)cc3)n2)cc1 [Example 83, 4-[5-(4-Pivaloyloxyphenyl)tetrazol-2-ylmethyl]phenoxyacetic acid]
7.10	CC(C)(C)C(=O)Oc1ccc(-c2nnn(Cc3ccc(OCCN)cc3)n2)cc1 [Example 86, 4-[2-[4-(2-Aminoethoxy)benzyl]tetrazol-5-yl]phenyl pivalate Hydrochloride]
7.10	CSCCC(NC(=O)c1ccc(Cn2nnc(-c3ccc(OC(=O)C(C)(C)C)cc3)n2)cc1)C(=O)O (racemic) [Example 62, N-[4-[5-(4-Pivaloyloxyphenyl)tetrazol-2-ylmethyl]benzoyl]-DL-methionine]
7.11	CC(C)(C)C(=O)Oc1ccc(-c2nnn(Cc3cccc(OCCN)c3)n2)cc1 [Example 85, 4-[2-[3-(2-Aminoethoxy)benzyl]tetrazol-5-yl]phenyl pivalate Hydrochloride]
7.23	CC(C)(C)C(=O)Oc1ccc(-c2nnn(Cc3ccccc3OCC(=O)O)n2)cc1 [Example 81, 2-[5-(4-Pivaloyloxyphenyl)tetrazol-2-ylmethyl]phenoxyacetic acid]
7.24	CC(C)(C)C(=O)Oc1ccc(-c2nnn(Cc3ccc(NC(=O)CN)cc3)n2)cc1 [Example 87, 4-[2-[4-(Glycylamino)benzyl]tetrazol-5-yl]phenyl pivalate Hydrochloride]
7.24	CC(C)(C)C(=O)Oc1ccc(-c2nnn(Cc3ccc(C(=O)N[C@@H](Cc4ccccc4)C(=O)O)cc3)n2)cc1
7.52	CC(C)(C)C(=O)Oc1ccc(-c2nnn(Cc3ccc(C(=O)N[C@@H](CCC(=O)O)C(=O)O)cc3)n2)cc1 [Example 61, N-[4-[5-(4-Pivaloyloxyphenyl)tetrazol-2-ylmethyl]benzoyl]-L-glutamic acid]
7.54	CC(C)(C)C(=O)Oc1ccc(-c2nnn(Cc3ccc(C(=O)NCC(=O)O)cc3)n2)cc1 [Example 58, N-[4-[5-(4-pivaloyloxyphenyl)tetrazol-2-ylmethyl]benzoyl]glycine]
